# Measurements: PubChem BioAssay AID1918933 (Molecular Pharmacology Branch, DTP, NCI, 2023)
# Tested on: 186277-243-T-J2-PDC complex spheroid viability
# Test: Anticancer human tumor 186277-243-T-J2-PDC patient-derived colon adenocarcinoma cell line growth inhibition
# Details: for IC50: curve of first compound; for viability, T/C: stronger effect = lower value
# In short: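 Multicellular complex spheroids of tumor cells with human endothelial cells (HUVEC) and mesenchymal stem cells; the LSD1 inhibitor iadademstat was combined with standard-of-care or investigational agents. Top concentration at or near clinical Cmax, half-log dilutions; final DMSO ≤0.25%.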
# 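Further: 7 day exposure to compounds.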
# 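Wherever viability, T/C is given: 100% = DMSO vehicle control viability.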
smiles,measurement,setting,value
CC(C)CC(NC(=O)C(Cc1ccccc1)NC(=O)c1cnccn1)B(O)O (stereo not given) + NC1CCC(NC2CC2c2ccccc2)CC1,IC50,second compound 0.1 µM,3.72 nM
same,IC50,second compound 0.316 µM,3.94 nM
same,IC50,second compound 1 µM,3.67 nM
same,IC50,second compound 3.16 µM,4.54 nM
same,IC50,second compound 10 µM,3.95 nM
same,"viability, T/C","second compound 0.1 µM, first compound 0.000316 µM",103%
same,"viability, T/C","second compound 0.1 µM, first compound 0.001 µM",107%
same,"viability, T/C","second compound 0.1 µM, first compound 0.00316 µM",58.1%
same,"viability, T/C","second compound 0.1 µM, first compound 0.01 µM",0.46%
same,"viability, T/C","second compound 0.1 µM, first compound 0.0316 µM",0.13%
same,"viability, T/C","second compound 0.1 µM, first compound 0.1 µM",0.28%
same,"viability, T/C","second compound 0.316 µM, first compound 0.000316 µM",113%
same,"viability, T/C","second compound 0.316 µM, first compound 0.001 µM",107%
same,"viability, T/C","second compound 0.316 µM, first compound 0.00316 µM",61.5%
same,"viability, T/C","second compound 0.316 µM, first compound 0.01 µM",0.8%
same,"viability, T/C","second compound 0.316 µM, first compound 0.0316 µM",0.31%
same,"viability, T/C","second compound 0.316 µM, first compound 0.1 µM",0.65%
same,"viability, T/C","second compound 1 µM, first compound 0.000316 µM",111%
same,"viability, T/C","second compound 1 µM, first compound 0.001 µM",107%
same,"viability, T/C","second compound 1 µM, first compound 0.00316 µM",57.4%
same,"viability, T/C","second compound 1 µM, first compound 0.01 µM",0.43%
same,"viability, T/C","second compound 1 µM, first compound 0.0316 µM",0.44%
same,"viability, T/C","second compound 1 µM, first compound 0.1 µM",0.16%
same,"viability, T/C","second compound 3.16 µM, first compound 0.000316 µM",107%
same,"viability, T/C","second compound 3.16 µM, first compound 0.001 µM",124%
same,"viability, T/C","second compound 3.16 µM, first compound 0.00316 µM",72.7%
same,"viability, T/C","second compound 3.16 µM, first compound 0.01 µM",0.98%
same,"viability, T/C","second compound 3.16 µM, first compound 0.0316 µM",0.25%
same,"viability, T/C","second compound 3.16 µM, first compound 0.1 µM",0.11%
same,"viability, T/C","second compound 10 µM, first compound 0.000316 µM",111%
same,"viability, T/C","second compound 10 µM, first compound 0.001 µM",98.5%
same,"viability, T/C","second compound 10 µM, first compound 0.00316 µM",62%
same,"viability, T/C","second compound 10 µM, first compound 0.01 µM",0.43%
same,"viability, T/C","second compound 10 µM, first compound 0.0316 µM",0.16%
same,"viability, T/C","second compound 10 µM, first compound 0.1 µM",0.43%
CCc1c2c(nc3ccc(O)cc13)-c1cc3c(c(=O)n1C2)COC(=O)[C@]3(O)CC + NC1CCC(NC2CC2c2ccccc2)CC1,IC50,second compound 0.1 µM,2.11 nM
same,IC50,second compound 0.316 µM,2.07 nM
same,IC50,second compound 1 µM,2.69 nM
same,IC50,second compound 3.16 µM,3.63 nM
same,IC50,second compound 10 µM,2.87 nM
same,"viability, T/C","second compound 0.1 µM, first compound 0.000949 µM",63%
same,"viability, T/C","second compound 0.1 µM, first compound 0.003 µM",40.7%
same,"viability, T/C","second compound 0.1 µM, first compound 0.00949 µM",33.6%
same,"viability, T/C","second compound 0.1 µM, first compound 0.03 µM",17.5%
same,"viability, T/C","second compound 0.1 µM, first compound 0.0949 µM",1.51%
same,"viability, T/C","second compound 0.1 µM, first compound 0.3 µM",0.43%
same,"viability, T/C","second compound 0.316 µM, first compound 0.000949 µM",62.7%
same,"viability, T/C","second compound 0.316 µM, first compound 0.003 µM",42.2%
same,"viability, T/C","second compound 0.316 µM, first compound 0.00949 µM",30.1%
same,"viability, T/C","second compound 0.316 µM, first compound 0.03 µM",19.3%
same,"viability, T/C","second compound 0.316 µM, first compound 0.0949 µM",1.53%
same,"viability, T/C","second compound 0.316 µM, first compound 0.3 µM",0.53%
same,"viability, T/C","second compound 1 µM, first compound 0.000949 µM",65.7%
same,"viability, T/C","second compound 1 µM, first compound 0.003 µM",43.1%
same,"viability, T/C","second compound 1 µM, first compound 0.00949 µM",38.1%
same,"viability, T/C","second compound 1 µM, first compound 0.03 µM",20.4%
same,"viability, T/C","second compound 1 µM, first compound 0.0949 µM",1.56%
same,"viability, T/C","second compound 1 µM, first compound 0.3 µM",0.4%
same,"viability, T/C","second compound 3.16 µM, first compound 0.000949 µM",71.2%
same,"viability, T/C","second compound 3.16 µM, first compound 0.003 µM",49.2%
same,"viability, T/C","second compound 3.16 µM, first compound 0.00949 µM",38.2%
same,"viability, T/C","second compound 3.16 µM, first compound 0.03 µM",20.8%
same,"viability, T/C","second compound 3.16 µM, first compound 0.0949 µM",1.23%
same,"viability, T/C","second compound 3.16 µM, first compound 0.3 µM",0.47%
same,"viability, T/C","second compound 10 µM, first compound 0.000949 µM",80.1%
same,"viability, T/C","second compound 10 µM, first compound 0.003 µM",44.5%
same,"viability, T/C","second compound 10 µM, first compound 0.00949 µM",32.6%
same,"viability, T/C","second compound 10 µM, first compound 0.03 µM",15.5%
same,"viability, T/C","second compound 10 µM, first compound 0.0949 µM",1.74%
same,"viability, T/C","second compound 10 µM, first compound 0.3 µM",1.75%
